Data taken from patent US8748435B2, “Pyrazolo pyrimidine derivatives” (Novartis AG, priority 2011, dated 2014).
Where a name gives a salt, the structure may show the parent alone.

Legend:
[1] = tested on: antigen-induced arthritis (knee swelling); experiment: Rat antigen-induced arthritis model; type: in vivo; settings: oral gavage, AUC of R/L knee swelling ratio vs control
Experimental: e) GPR4 Activity in Rat Antigen-induced Arthritis Model Female Lewis rats were sensitised intradermally on the back at two sites to methylated bovine serum albumin (mBSA) homogenised 1:1 with complete Freund's adjuvant on days −21 and −14 (0.1 ml containing 1 mg/ml mBSA). On day 0, the right knee received […] of 10 mg/ml mBSA in 5% glucose solution (antigen injected knee), while the left knee received […] of 5% glucose solution alone (vehicle injected knee). The diameters of the left and right knees were then measured using calipers immediately after the intra-articular injections and again on days 2, 4 and 7. The compounds of the invention were administered twice daily by oral gavage; vehicle (saline) at 5 ml/kg, and dexamethasone at 0.3 mg/kg was given as a control. Right knee swelling was calculated as a ratio of left knee swelling, and the R/L knee swelling ratio plotted against time to give Area Under the Curve (AUC) graphs for control and treatment groups. The percentage inhibition of the individual treatment group AUCs were calculated vs the control group AUC (0% inhibition).

[2] = tested on: CFA-induced hyperalgesia; experiment: Established rat hyperalgesia model (CFA); type: in vivo; settings: gavage
Experimental: f) Established Rat Hyperalgesia Model
Naïve withdrawal thresholds of both hind paws were determined by using an increasing pressure stimulus placed onto the dorsal surface of each paw using an analgesymeter. Delayed inflammatory pain was then induced by intra-plantar injection of 25 μl of complete Freund's adjuvant (CFA) into one hindpaw with the contralateral paw acting as the control. […] One hour later, paw withdrawal thresholds were re-measured on both the ipsilateral (CFA-injected) and contralateral (uninjected) paw; measurements were repeated at 3 hrs and 6 hrs post dosing. The reversal of hyperalgesia was calculated using the following formula: Reversal (%)=100×(postdose ipsilateral threshold−predose ipsilateral threshold) (naïve ipsilateral threshold−predose ipsilateral threshold).

[3] = biological target: T1, human GPR4 (Homo sapiens (Human), UniProt P46093); experiment: Human GPR4 binding assay ([3H]4 radioligand, membranes of 300.19 cells expressing human GPR4)
Experimental: a) Human GPR4 Binding Assay
(§1) Cells were grown in T175 flasks to a density of about 1×10^6 cells/mL in growth medium. The cells were harvested by centrifugation (3000 rpm for 30 minutes at 4° C.) and the pellet resuspended in ice cold buffer A (20 mM HEPES pH 7.8, 10 mM EDTA, 100 mM NaCl, 1 tab/40 mL protease inhibitor complete). […] The homogenate was centrifuged at 18000 rpm for 50 min at 4° C. and the membrane protein pellet resuspended in cold buffer A using the Polytron (2×20 seconds). The protein concentration is determined using the Bio Rad Protein Assay and human IgG as standard. The volume of the membrane protein suspension is adjusted to a final concentration of about 2 mg protein/mL. The suspension is then once again homogenized (Polytron) on ice at 25000 rpm for 20 seconds before being aliquoted and stored at −80° C.
(§2) Radio Ligand Binding Assay: Serial dilutions of compounds (stock in 10 mM DMSO) are prepared by first diluting the compounds in DMSO followed by a 1:50 dilution into assay buffer (10 mM HEPES, pH 8.0, 100 mM NaCl, 5 mM MgCl2, 1 mM CaCl2, 0.5% fatty acid-free BSA, 0.05% Tween-20). […] The desired amount of membranes (20 μg/well) is diluted with assay buffer. […] 100 μL of the membrane-suspension is added and the plate stirred for 60 minutes. […] The filter plate is washed 5 times with ice-cold wash buffer, dried and sealed at the bottom. Then 20 μL of Microscint 40 is added into each well and the top of the plate is sealed. Finally the plate is counted for 2 min/well in a TopCount NXT instrument (Packard Instruments). The data are analyzed using the GraphPad Prism™ software.

[4] = biological target: T1, human GPR4; experiment: Human GPR4 binding assay with additional human serum albumin (4% HSA); settings: binding assay with 4% HSA
Experimental: as §1, §2
In a similar manner, a binding assay with additional human serum albumin (4% HSA) has been established.

[5] = biological target: T1, human GPR4; experiment: Cell-based assay for human GPR4 activity (pH-induced cAMP formation, HTRF, HeLa cells); settings: HeLa cells stably expressing human GPR4, pH-induced cAMP
Experimental: b) Cell-Based Assay for Human GPR4 Activity
(§3) HeLa cells stably expressing human GPR4 were established by transfecting the cells with a construct containing the human GPR4 coding sequence. The cells were grown in Dulbecco's Modified Eagle Medium (DMEM)/HAM's tissue culture medium F12 (HAM's F12) supplemented with 10% fetal calf serum (FCS), 100 u/ml penicillin, 100 μg/ml streptomycin and 400 μg/ml G418 and 10 mM Hepes pH 8.0. pH-induced formation of cAMP was determined using the homogeneous time resolved fluorescence (HTRF) technology as provided by CisBio Inc. The cells were seeded in 384-well plates and cultured for 24 hours at 37° C., 5% CO2 before performing the assay. Medium was removed and 10 μl buffer A (Hepes buffered saline (HBS), 10 mM Hepes, pH 8, 2 mM 3-Isobutyl-1-methylxanthin (IBMX)) was added. For compound testing, buffer A with 2× concentrated compounds was used. Cells were incubated for 15 min at room temperature. 10 μl buffer B (HBS, 30 mM Hepes, specific pH) was added to reach the appropriate final pH for stimulation (see below) and incubation was continued for 15 min at room temperature. […] HBS: 130 mM NaCl, 0.9 mM NaH2 PO4, 5.4 mM KCl, 0.8 mM MgSO4, CaCl2 1.8 mM, 25 mM glucose, 10-30 mM Hepes. Adjustment of HBS buffers:
(§4) Compounds were diluted from fresh stock solutions at 10 mM in DMSO to 2 mM and then used for serial dilutions in DMSO.

[6] = biological target: mouse GPR4 (Mus musculus (Mouse), UniProt Q8BUD0); experiment: Mouse GPR4 cAMP assay; type: cell-based
Experimental: as §3, §4
(§5) In a similar manner, assays for the mouse (m) and rat (r) GPR4 receptors have been established.

[7] = biological target: rat GPR4 (Rattus norvegicus (Rat), UniProt Q4KLH9); experiment: Rat GPR4 cAMP assay; type: cell-based; settings: read-out: r cAMP IC50
Experimental: as §3, §4, §5

[8] = biological target: Human H3 (Homo sapiens (Human), UniProt Q9Y5N1); experiment: Human H3 binding assay (SPA, [3H]-R-alpha-Methylhistamine); settings: 3 nM [3H]-R-alpha-Methylhistamine
Experimental: c) Human H3 Binding Assay
The Scintillation Proximity Binding Assay (SPA) assay was performed in a final volume of 50 μL per well in a 384-well polystyrene plate.
The final concentration of the radioligand was 3 nM. • 20 μL of a beads (PVT-WGA type A) and membranes mixed suspension in assay buffer, in order to get a final concentration of 10 μg/well of membranes and 200 μg/well of beads. As an example, 1471 μL membranes (Conc.: 5.1 mg/mL) and 1500 μL of bead suspension (Conc.: 100 mg/mL) are diluted to a final volume of 15 mL of assay buffer.
The plates were sealed and shaken at room temperature, then allowed to stand at room temperature for at least 1 hour. The plates were counted using a Perkin Elmer TopCount reader, each well being counted for 1 minute.

[9] = radioligand [3H]4 (example 39), membranes of 300.19 cells expressing human GPR4

Human H3, sequence (Q9Y5N1 whole entry): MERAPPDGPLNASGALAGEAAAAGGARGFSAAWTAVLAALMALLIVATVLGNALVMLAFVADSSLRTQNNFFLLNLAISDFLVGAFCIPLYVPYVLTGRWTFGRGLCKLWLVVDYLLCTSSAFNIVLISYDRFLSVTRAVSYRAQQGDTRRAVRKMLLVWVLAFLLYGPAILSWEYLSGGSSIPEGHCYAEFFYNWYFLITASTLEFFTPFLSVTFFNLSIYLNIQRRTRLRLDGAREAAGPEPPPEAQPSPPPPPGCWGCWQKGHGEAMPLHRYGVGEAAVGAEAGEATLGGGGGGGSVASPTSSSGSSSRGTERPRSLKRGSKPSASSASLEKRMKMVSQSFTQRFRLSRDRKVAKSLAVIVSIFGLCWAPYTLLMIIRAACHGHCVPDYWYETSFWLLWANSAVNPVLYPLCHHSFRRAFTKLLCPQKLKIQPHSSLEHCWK
rat GPR4, sequence (Q4KLH9 whole entry): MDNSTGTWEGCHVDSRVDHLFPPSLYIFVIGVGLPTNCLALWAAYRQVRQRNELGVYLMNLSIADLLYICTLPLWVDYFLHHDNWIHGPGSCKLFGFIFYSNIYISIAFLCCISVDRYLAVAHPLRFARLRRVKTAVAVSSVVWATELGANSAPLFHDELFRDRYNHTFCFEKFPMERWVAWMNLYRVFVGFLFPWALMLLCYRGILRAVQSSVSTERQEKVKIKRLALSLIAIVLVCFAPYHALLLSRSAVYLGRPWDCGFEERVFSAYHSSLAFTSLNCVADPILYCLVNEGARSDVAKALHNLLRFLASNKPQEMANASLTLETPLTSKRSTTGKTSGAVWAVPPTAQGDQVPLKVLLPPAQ
T1 sequence (P46093 whole entry): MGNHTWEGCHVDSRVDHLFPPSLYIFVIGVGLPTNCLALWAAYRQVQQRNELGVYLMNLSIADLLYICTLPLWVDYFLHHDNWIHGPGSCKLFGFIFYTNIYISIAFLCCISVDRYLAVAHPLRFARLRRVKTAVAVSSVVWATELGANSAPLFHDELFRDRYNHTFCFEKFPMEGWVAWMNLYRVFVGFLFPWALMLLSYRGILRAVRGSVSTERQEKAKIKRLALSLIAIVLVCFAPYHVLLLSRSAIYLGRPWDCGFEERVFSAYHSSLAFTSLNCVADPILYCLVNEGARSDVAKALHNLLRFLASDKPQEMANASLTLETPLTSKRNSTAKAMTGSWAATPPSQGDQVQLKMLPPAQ
mouse GPR4, sequence (Q8BUD0 whole entry): as the sequence (Q4KLH9 whole entry) above, with W8G, R51H, T339S counted along it

IC50 [3, 9] [nM] | IC50 [4] [nM] | IC50 [5] [nM] | IC50 [6] [nM] | IC50 [7] [nM] | IC50 [8] [nM] | IC50 [3] [nM] | Structure (SMILES) | Inhibition of swelling ([1]; 30 mg/kg bid) [%] | % reversal of hyperalgesia ([2]; 3 mg/kg, 1 h) [%] | % reversal of hyperalgesia ([2]; 3 mg/kg, 3 h) [%] | % reversal of hyperalgesia ([2]; 3 mg/kg, 6 h) [%] | % reversal of hyperalgesia ([2]; 10 mg/kg, 1 h) [%] | % reversal of hyperalgesia ([2]; 10 mg/kg, 3 h) [%] | % reversal of hyperalgesia ([2]; 10 mg/kg, 6 h) [%] | % reversal of hyperalgesia ([2]; 30 mg/kg, 1 h) [%] | % reversal of hyperalgesia ([2]; 30 mg/kg, 3 h) [%] | % reversal of hyperalgesia ([2]; 30 mg/kg, 6 h) [%] | Inhibition of swelling ([1]; 90 mg/kg bid) [%]
118 | 180 | 49 | 687 | 2300 | 20000 |  | CCc1nn2c(C)cc(C)nc2c1Cc1ccc(-n2cc(CN3CC(O)C3)cn2)cc1 [Example 28, 1-{1-[4-(2-Ethyl-5,7-dimethyl-pyrazolo[1,5-a]pyrimidin-3-ylmethyl)-phenyl]-1H-pyrazol-4-ylmethyl}-azetidin-3-ol] |  |  |  |  |  |  |  |  |  |  | 25
 | 56 | 33 | 253 | 1720 | > 30000 | 34 | CCc1nn2c(C)cc(C)nc2c1Cc1ccc(/C=C/CC2(O)CCN(C(=O)CNC)CC2)cc1 [Example 7, 1-(4-{(E)-3-[4-(2-Ethyl-5,7-dimethyl-pyrazolo[1,5-a]pyrimidin-3-ylmethyl)-phenyl]-allyl}-4-hydroxy-piperidin-1-yl)-2-methylamino-ethanone hydrochloride] |  |  |  |  |  |  |  |  |  |  | 
21 | 30 | 36 | 211 | 430 | > 30000 |  | CCc1nn2c(C)cc(C)nc2c1Cc1ccc(-n2cc(CN3CC(N)C3)cn2)cc1 [Example 29, 1-{1-[4-(2-Ethyl-5,7-dimethyl-pyrazolo[1,5-a]pyrimidin-3-ylmethyl)-phenyl]-1H-pyrazol-4-ylmethyl}-azetidin-3-ylamine] |  |  |  |  |  |  |  |  |  |  | 

More lines, now with the values behind:

Structure (SMILES) | IC50 [3, 9] [nM] | IC50 [4] [nM] | IC50 [5] [nM] | IC50 [6] [nM] | IC50 [7] [nM] | IC50 [8] [nM] | IC50 [3] [nM] | Inhibition of swelling ([1]; 30 mg/kg bid) [%] | % reversal of hyperalgesia ([2]; 3 mg/kg, 1 h) [%] | % reversal of hyperalgesia ([2]; 3 mg/kg, 3 h) [%] | % reversal of hyperalgesia ([2]; 3 mg/kg, 6 h) [%] | % reversal of hyperalgesia ([2]; 10 mg/kg, 1 h) [%] | % reversal of hyperalgesia ([2]; 10 mg/kg, 3 h) [%] | % reversal of hyperalgesia ([2]; 10 mg/kg, 6 h) [%] | % reversal of hyperalgesia ([2]; 30 mg/kg, 1 h) [%] | % reversal of hyperalgesia ([2]; 30 mg/kg, 3 h) [%] | % reversal of hyperalgesia ([2]; 30 mg/kg, 6 h) [%] | Inhibition of swelling ([1]; 90 mg/kg bid) [%]
CCc1nn2c(C)cc(C)nc2c1Cc1ccc(/C=C/CN2CCN(C[C@@H](O)CO)CC2)cc1.Cl.Cl [Example 17, (R)-3-(4-{(E)-3-[4-(2-Ethyl-5,7-dimethyl-pyrazolo[1,5-a]pyrimidin-3-ylmethyl)-phenyl]-allyl}-piperazin-1-yl)-propane-1,2-diol dihydrochloride] |  |  |  |  |  |  |  | 36 | 28 | 18 | 3 | 36 | 29 | 7 | 55 | 32 | 15 | 
CCc1nn2c(C)cc(C)nc2c1Cc1ccc(/C=C/CN2CCN[C@H](CO)C2)cc1 [Example 8, ((S)-4-{(E)-3-[4-(2-Ethyl-5,7-dimethyl-pyrazolo[1,5-a]pyrimidin-3-ylmethyl)-phenyl]-allyl}-piperazin-2-yl)-methanol dihydrochloride] | 28 | 51 | 34 | 378 | 670 | > 30000 |  |  |  |  |  |  |  |  |  |  |  | 30
